These results are taken from patent publication US20050106168A1, “Methods and compositions for treating nephrotic syndrome” (priority 2003, published 2005).

Structures are written as SMILES.

Test [1] has as its system Wistar rats showing proteinuria. Put plainly: Effect of treatment on proteinuria (urinary protein by sulfosalicylic acid turbidimetry) in BSA-injected rats. In kind it is in vivo, rat. The settings on record: BSA 350 mg/kg i.v., intragastric twice daily, yeast compositions 1.0 ml/100 g, pednisone 0.25 mg/100 g. On the procedure:
(§1) The activated yeast compositions used in the following examples were prepared as described above, using Saccharomyces cerevisiae Hansen AS2.502, cultured in the presence of an alternating electric field having the electric field frequency and field strength exemplified in the parentheses following the recommended ranges listed in Section IV, supra. Control (i.e., untreated) yeast compositions were those prepared in the same manner as described in Section VI, supra, except that the yeast cells were cultured in the absence of EMFs. Unless otherwise specified, all compositions of interest were administered to the animals by intragastric feeding.
To test the ability of the activated yeast compositions to reduce the level of urinary protein, sixty healthy Wistar rats with average weight of about 200-220 g (4-7 months old, half of them male and the other half female) were chosen and males and females were kept in separate cages. […] Urine samples were collected from the fine cancellated base of metabolic cages, and the amount of protein in the samples was determined by […]. […]
The amount of urinary protein was determined by sulfosalicylic acid turbidimetry. The volume of each urine sample was first measured (ml). […] Ten minutes later, the absorption of the sample test tube was measured at 620 nm against the control tube. […]

The test system is the same in test [2]. As to the kind of experiment: Effect of treatment on serum protein (biuret method) in BSA-injected rats. Type of test: in vivo, rat. The note with it: Wistar rats prepared as in Example 1; intragastric twice daily for six weeks; yeast compositions 1.0 ml/100 g, pednisone 0.2 mg/100 g. On the procedure: as §1, with “feeding. […]” for “feeding.”
Subsequently, a composition of interest was administered twice daily to each of the four groups of rats for six weeks. […] The amount of protein in the supernatant (serum protein) was determined.
To determine the amount of serum protein, 50 μl of the supernatant and standard serum protein were added into two separate tubes. […] The mixtures were placed in water bath at 37° C. for 10 minutes and measured for absorption at 546 nm. The concentration of serum protein was calculated according to the following formula: [Serum Protein]=[absorption for the testing sample/absorption for the standard]×[standard serum protein](g/dl).

With `C[C@]12C=CC(=O)C=C1CC[C@@H]1[C@@H]2C(=O)C[C@@]2(C)[C@H]1CC[C@]2(O)C(=O)CO` [Pednisone, pednisone (metacortandiacin)], the “Urinary Protein (mg in 100 ml urine sample) in a 24-hour Period, 8-Week Treatment” value in test [1] (last day of eighth week) is 4.22 ± 1.34 mg in 100 ml urine sample. Further, the “Urinary Protein (mg in 100 ml urine sample) in a 24-hour Period, 4-Week Treatment” value in test [1] (last day of fourth week) turned out to be 4.57 ± 1.42 mg in 100 ml urine sample. Also, in test [2], the “Serum Protein” value was found to be 6.41 ± 3.32 g/dL.
